Where only a bound is given, the exact number is not on record here.

The target of assay [1] is T1, Human recombinant MMP-2 (Homo sapiens, UniProt P08253).
T1 construct: made in house; host or cells: MMP-2-transfected p2AHT2 cells
T1 sequence (P08253 110-660): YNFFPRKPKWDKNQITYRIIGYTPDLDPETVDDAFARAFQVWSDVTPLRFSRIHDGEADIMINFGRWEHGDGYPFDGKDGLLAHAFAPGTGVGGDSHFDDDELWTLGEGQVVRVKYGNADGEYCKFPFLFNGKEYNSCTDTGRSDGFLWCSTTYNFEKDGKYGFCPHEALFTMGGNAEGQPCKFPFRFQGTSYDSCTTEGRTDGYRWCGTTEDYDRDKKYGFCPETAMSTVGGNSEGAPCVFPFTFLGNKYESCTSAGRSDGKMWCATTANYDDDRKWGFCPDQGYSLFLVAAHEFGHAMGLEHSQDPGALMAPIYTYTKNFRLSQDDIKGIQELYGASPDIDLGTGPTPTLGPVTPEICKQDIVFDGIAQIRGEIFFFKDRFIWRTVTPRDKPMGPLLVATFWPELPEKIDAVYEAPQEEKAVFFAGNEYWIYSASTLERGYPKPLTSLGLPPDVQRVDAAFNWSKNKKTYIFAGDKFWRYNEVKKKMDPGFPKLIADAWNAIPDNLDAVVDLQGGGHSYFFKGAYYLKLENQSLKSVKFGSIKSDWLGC
Kind of assay: In vitro MMP inhibition, Ki determination (fluorogenic substrate II). It counts as biochemical.

The target of assay [2] is T2, Human recombinant MMP-13 (Homo sapiens, UniProt P45452).
T2 construct: made in house; host or cells: baculovirus / insect cells
The description is as above. Type of assay: biochemical. The protocol: Several hydroxamates and salts thereof were analyzed in in vitro assays to determine their ability to inhibit the MMP cleavage of peptide substrates. Inhibition (Ki) and IC50 constants were calculated from the assayed hydroxamate-MMP interactions.
Human recombinant MMP-1, MMP-2, MMP-9, MMP-13, and MMP-14 were used in this assay. All enzymes were prepared in Assignee's laboratories following usual laboratory procedures. Protocols for the preparation and use of these enzymes are available in the scientific literature. See, e.g., Enzyme Nomenclature (Academic Press, San Diego, Calif., 1992) (and the citations therein). See also, Frije et al., J. Biol. Chem., 26(24), 16766-73 (1994).
The expressed proenzyme was first purified over a heparin agarose column, and then over a chelating zinc chloride column. The proenzyme was then activated by APMA for use in the assay. Further details on baculovirus expression systems may be found in, for example, Luckow et al., J. Virol., 67, 4566-79 (1993). See also, O'Reilly et al, Baculovirus Expression Vectors: A Laboratory Manual (W. H. Freeman and Co., New York, N.Y., 1992). See also, King et al., The Baculovirus Expression System: A Laboratory Guide (Chapman & Hall, London, England, 1992).
All MMPs were activated using 4-aminophenylmercuric acetate (“APMA”, Sigma Chemical, St. Louis, Mo.) or trypsin. MMP-9 also was activated using human recombinant MMP-3 (purified in Assignee's laboratory following standard cloning and purification techniques).
Two fluorogenic, methoxycoumarin-containing polypeptide substrates were used in the MMP inhibition assays:
MCA-ArgProLeuGlyLeuDpaAlaArgGluArgNH2 (II)
Here, “Dpa” is 3-(2,4-dinitrophenyl)-L-2,3-diaminopropionyl group, and “MCA” is 7-methoxycoumarin-4-yl acetyl. Substrate (I) was purchased from Baychem (Redwood City, Calif.), and substrate II was prepared Assignee's laboratory. Substrate I was used in the IC50 determination assays, while substrate II was used in the Ki determination assays. In the absence of MMP inhibitory activity, either substrate is cleaved at the Gly-Leu peptide bond. This cleavage separates the highly fluorogenic peptide from the 2,4-dinitrophenyl quencher, thus resulting in increase of fluorescent intensity.
The stock solutions of the assayed hydroxamates (or salts thereof) were prepared in 1% dimethyl sulfoxide (DMSO). These stock solutions were diluted in Buffer A (100 mM Tris-HCl, 100 mM NaCl, 10 mM CaCl2, 0.05% polyoxyethylene 23 lauryl ether, pH 7.5) to obtain solutions with different hydroxamate concentrations, i.e., assay solutions with different concentrations of the assayed MMP inhibitory compound. The experiment controls contained the same amount of Buffer A/DMSO as the assayed sample, but contained no hydroxamate (or salt thereof).
The assays from which the Ki determinations were made were performed as follows. The assayed hydroxamate samples were incubated in separate wells of untreated white polystyrene plates (Nunc Nalgene International, Rochester, N.Y.), and analyzed on a Tecan SpectraFlour Plus plate reader. The excitation wavelength was 330 nm, and the emission wavelength—420 nm. All samples (assayed hydroxamates and controls) were incubated in separate plate wells at room temperature for 1 hr in the presence of 4 μM of MMP substrate (II). In the absence of MMP inhibitory activity, substrate II was cleaved at the Gly-Leu bond resulting in an increase of relative fluorescence. Inhibition was observed as a reduced rate of this increase in relative fluorescence. The various hydroxamates were analyzed using a single low enzyme concentration with a single substrate concentration fixed at or below the Km. This protocol is a modification of method by Knight et al., FEBS Lett., 296(3), 263-266 (1992). Apparent inhibitory constants were determined by non-linear regression of reaction velocity as a function of inhibitor and enzyme concentration using Morrison's equation, as described by Kuzmic, Anal. Biochem. 286, 45-50 (2000). […]

[3] abbreviates: substrate (II) 4 μM, 1 hr room temperature, apparent Ki, values in parenthesis.

Consider `COCCN1CCC(C(=O)NO)(S(=O)(=O)c2ccc(OCCc3cccc(-c4ccccc4)c3)cc2)CC1` [Example 45], for which the figures for the Ki in assay [1] (setting [3]) and in assay [2] (setting [3]) were 0.225 µM and 0.00062 µM, respectively.
Take `COCCN1CCC(C(=O)NO)(S(=O)(=O)c2ccc(OCCCc3cccc(-c4ccc(Cl)cc4)c3)cc2)CC1` [Example 50]: the Ki in assay [1] (setting [3]) was determined as 1.13 µM; in assay [2] (setting [3]) it was 0.0006 µM.
As for `COCCN1CCC(C(=O)NO)(S(=O)(=O)c2ccc(OCCCc3cccc(-c4ccc(F)c(F)c4)c3)cc2)CC1` [Example 52], the Ki was 0.543 µM in assay [1] (setting [3]) and 0.00081 µM in assay [2] (setting [3]).
As to `O=C(NO)C1(S(=O)(=O)c2ccc(OCCCc3nc(-c4ccc(OC(F)(F)F)cc4)no3)cc2)CCN(Cc2ccccc2)CC1` [Example 93], the results for the Ki in assay [1] (value in parenthesis) and in assay [2] (value in parenthesis) were 0.676 µM and 0.00929 µM, respectively.
The like results for `CC(C)c1ccc(-c2cccc(CCOc3ccc(S(=O)(=O)C4(C(=O)NO)CCOCC4)cc3)c2)cc1` [Example 109] were, in that order, 8.1 µM and 0.0931 µM.
For `O=C(NO)C1(S(=O)(=O)c2ccc(OCCc3cccc(-c4cc(F)cc(F)c4)c3)cc2)CCOCC1` [Example 110], the values for the Ki in assay [1] (value in parenthesis) and in assay [2] (value in parenthesis) were 0.112 µM and 0.0114 µM, respectively.
On the same counts, the results for `O=C(NO)C1(S(=O)(=O)c2ccc(OCCc3cccc(-c4cccc(F)c4)c3)cc2)CCOCC1` [Example 111] are 0.769 µM and 0.00639 µM.
The like results for `O=C(NO)C1(S(=O)(=O)c2ccc(OCCc3cccc(-c4ccc(OC(F)(F)F)cc4)c3)cc2)CCOCC1` [Example 112] were, in that order, 3.97 µM and 0.0512 µM.
On the same counts, the results for `O=C(NO)C1(S(=O)(=O)c2ccc(OCCc3cccc(-c4ccccc4Cl)c3)cc2)CCOCC1` [Example 114] are 1.5 µM and 0.0042 µM.
Turning to `Cc1ccccc1-c1cccc(CCOc2ccc(S(=O)(=O)C3(C(=O)NO)CCOCC3)cc2)c1` [Example 116], the results for the Ki in assay [1] (value in parenthesis) and in assay [2] (value in parenthesis) were 1.25 µM and 0.0051 µM, respectively.
The like results for `Cc1ccc(-c2cccc(CCOc3ccc(S(=O)(=O)C4(C(=O)NO)CCOCC4)cc3)c2)cc1C` [Example 117] were, in that order, 3.64 µM and 0.021 µM.
The like results for `Cc1cc(-c2cccc(CCOc3ccc(S(=O)(=O)C4(C(=O)NO)CCOCC4)cc3)c2)ccc1Cl` [Example 118] were, in that order, 2.65 µM and 0.0188 µM.
On the same counts, the results for `COc1ccc(-c2cccc(CCOc3ccc(S(=O)(=O)C4(C(=O)NO)CCOCC4)cc3)c2)cc1C` [Example 119] are 1.68 µM and 0.0314 µM.
With `O=C(NO)C1(S(=O)(=O)c2ccc(OCCc3cccc(-c4ccc(Cl)c(Cl)c4)c3)cc2)CCOCC1` [Example 121], the Ki in assay [1] (value in parenthesis) turned out to be 4.62 µM; in assay [2] (value in parenthesis), 0.0269 µM.
In the case of `O=C(NO)C1(S(=O)(=O)c2ccc(OCCc3cccc(-c4ccc(Cl)cc4Cl)c3)cc2)CCOCC1` [Example 124], the Ki in assay [1] (value in parenthesis) is 5.73 µM; in assay [2] (value in parenthesis) it was 0.0201 µM.
On the same counts, the results for `O=C(NO)C1(S(=O)(=O)c2ccc(OCCc3cccc(-c4cc(Cl)cc(Cl)c4)c3)cc2)CCOCC1` [Example 126] are 6.36 µM and 0.0813 µM.
Regarding `COCCN1CCC(C(=O)NO)(S(=O)(=O)c2ccc(OCCCc3nc(-c4ccc(CC(C)C)cc4C)no3)cc2)CC1` [Example 128], the Ki was 1.13 µM in assay [1] (value in parenthesis) and 0.0138 µM in assay [2] (value in parenthesis).
`NC(=O)c1cccc(-c2noc(CCCOc3ccc(S(=O)(=O)C4(C(=O)NO)CCN(C5CC5)CC4)cc3)n2)c1` [Example 129]: the Ki in assay [1] (value in parenthesis) was determined as 0.05 µM; in assay [2] (value in parenthesis) it was 0.00027 µM.
On the same counts, the results for `COCCN1CCC(C(=O)NO)(S(=O)(=O)c2ccc(OCCCc3nc(-c4ccc(Br)cc4C)no3)cc2)CC1` [Example 135] are 0.0585 µM and 0.000761 µM.
On to `O=C(NO)C1(S(=O)(=O)c2ccc(OCCCc3nc(C4CCCCC4)no3)cc2)CCN(C2CC2)CC1` [Example 137], for which the Ki was determined as 0.0366 µM in assay [1] (value in parenthesis) and 0.000976 µM in assay [2] (value in parenthesis).
The like results for `Cc1cc(-c2cccc(CCCOc3ccc(S(=O)(=O)C4(C(=O)NO)CCOCC4)cc3)c2)ccc1Cl` [Example 166] were, in that order, 8.09 µM and 0.0634 µM.
On the same counts, the results for `Cc1cc(-c2cccc(CCCOc3ccc(S(=O)(=O)C4(C(=O)NO)CCOCC4)cc3)c2)ccc1F` [Example 168] are 5.5 µM and 0.0273 µM.
The like results for `O=C(NO)C1(S(=O)(=O)c2ccc(OCCCc3cccc(-c4ccc(Cl)c(Cl)c4)c3)cc2)CCOCC1` [Example 169] were, in that order, 5.36 µM and 0.0204 µM.
For `O=C(NO)C1(S(=O)(=O)c2ccc(OCCCc3cccc(-c4ccc(F)c(F)c4)c3)cc2)CCOCC1` [Example 170], the Ki in assay [1] (value in parenthesis) was 1.41 µM; in assay [2] (value in parenthesis) it was 0.00679 µM.
On the same counts, the results for `O=C(NO)C1(S(=O)(=O)c2ccc(OCCCc3cccc(-c4ccc(Cl)cc4Cl)c3)cc2)CCOCC1` [Example 171] are 3.19 µM and 0.0125 µM.
On the same counts, the results for `O=C(NO)C1(S(=O)(=O)c2ccc(OCCCc3cccc(-c4cc(Cl)cc(Cl)c4)c3)cc2)CCOCC1` [Example 172] are more than 10 µM and 0.0711 µM.
For the compound `CCCCc1ccc(-c2noc(CCCOc3ccc(S(=O)(=O)C4(C(=O)NO)CCOCC4)cc3)n2)c(C)c1` [Example 183], the Ki was 0.643 µM in assay [1] (value in parenthesis) and 0.0151 µM in assay [2] (value in parenthesis).
The like results for `COCCN1CCC(C(=O)NO)(S(=O)(=O)c2ccc(OCCCc3nc(-c4ccc(C5(c6ccccc6)CC5)cc4)no3)cc2)CC1` [Example 185] were, in that order, 0.116 µM and 0.00373 µM.
With `COCCN1CCC(C(=O)NO)(S(=O)(=O)c2ccc(OCCCc3nc(-c4cccc5ccccc45)no3)cc2)CC1` [Example 199], the results for the Ki in assay [1] (value in parenthesis) and in assay [2] (value in parenthesis) were 0.228 µM and 0.00309 µM, respectively.
For `O=C(NO)C1(S(=O)(=O)c2ccc(OCCCc3ccc(F)c(-c4ccccc4)c3)cc2)CCOCC1` [Example 504], the Ki was 0.434 µM in assay [1] (value in parentheses) and 0.00465 µM in assay [2] (value in parentheses).
In the case of `CCCC(=O)CCCOc1ccc(S(=O)(=O)C2(C(=O)NO)CCOCC2)cc1` [Example 505], the Ki came out at 0.00256 µM in assay [1] (value in parentheses) and 0.00081 µM in assay [2] (value in parentheses).
On the same counts, the results for `CCCCC(=O)CCCOc1ccc(S(=O)(=O)C2(C(=O)NO)CCOCC2)cc1` [Example 506] are 0.00192 µM and 0.00023 µM.
The like results for `CCCCCCCOc1ccc(S(=O)(=O)C2(C(=O)NO)CCOCC2)cc1` [Example 507] were, in that order, 0.00084 µM and 0.00019 µM.
With `COCCN1CCC(C(=O)NO)(S(=O)(=O)c2ccc(OCCCc3cncc(-c4ccccc4)c3)cc2)CC1` [Example 508], the Ki in assay [1] (value in parentheses) amounted to 0.0228 µM; in assay [2] (value in parentheses), 0.000141 µM.

For the origin of these results see patent US20040024024A1, “Aromatic sulfone hydroxamates and their use as protease inhibitors” (priority 2001, published 2004).
